The first data set in a line: in vitro. Conditions: human, hela cells, % viability.
By viability is commonly meant a read-out of living cells in per cent, often relative to untreated cells. For `CSc1ncc(Cl)c(C(=O)Nc2sc3c(c2C(=O)NCc2ccco2)CCC3)n1` [CBK268991], the viability at 28.5 h, 10 µM worked out at 97.2%.

For `Cc1ccc(Cl)c(OCc2nnc(SCC(=O)O)n2N)c1` [CBK268992], the viability at 28.5 h, 10 µM stood at 105%.

Take `CC(CCc1ccccc1)NC(=O)CN1CCOCC1` (stereo not drawn) [CBK268994]: the viability at 28.5 h, 10 µM worked out at 93%. Take `N#C/C(=C/c1ccc(Sc2ccc(Cl)cc2)o1)c1ccc(C(=O)O)cc1` [CBK268996]: the viability at 28.5 h, 10 µM was 89.8%.

Consider `COc1ccc(OC)c(NC(=O)c2ccc3nccnc3c2)c1` [CBK268997], for which the viability at 28.5 h, 10 µM is 106%.

With `O=C(Cn1ccc([N+](=O)[O-])n1)NCc1ccco1` [CBK268999], the viability at 28.5 h, 10 µM turned out to be 89.6%. On the same count and under the same terms, for `Cc1ccc(S(=O)(=O)Nc2ccc(C(=O)Nc3ccc(S(=O)(=O)N4CCCCC4)cc3)cc2)cc1` [CBK269000] the value was 101%; for `O=S(=O)(N1CCCCCC1)N1CCN(S(=O)(=O)N2CCCCC2)CC1` [CBK269001], 114%. The same measure, in the same setting: then `NS(=O)(=O)c1ccc(NC(=O)CSc2ccc([N+](=O)[O-])cn2)cc1` [CBK269002], with 95%. Regarding `CN1CCN(C(=O)c2nc(SCc3ccccc3)ncc2Cl)CC1` [CBK269003], the viability at 28.5 h, 10 µM turned out to be 86.7%. The same measure, in the same setting: for `Cc1ccccc1NS(=O)(=O)c1cc(C(=O)Nc2ccc(S(=O)(=O)N3CCCC3)cc2)ccc1C` [CBK269004] the value was 92.9%; for `CCOc1ccc(C(=O)Nc2ccc(-c3nc4ccccc4s3)cc2C)cc1[N+](=O)[O-]` [CBK269005], 90.5%; for `O=C(CSc1nnc(CN2CCOCC2)n1-c1ccc(Cl)cc1)N1CCc2ccccc21` [CBK269008], 97.9%. Consider `CC1CN(S(=O)(=O)N2CCOCC2)CCN1S(=O)(=O)N1CCOCC1` (stereo not drawn) [CBK269011], for which the viability at 28.5 h, 10 µM was determined as 101%. For `Cc1c(NC(=O)CN(c2ccccc2)S(=O)(=O)N(C)C)cccc1[N+](=O)[O-]` [CBK269012], the viability at 28.5 h, 10 µM was 106%. Still for that read-out and setting: for `COc1ccccc1NC(=O)C1C2NC(=S)NC1(C)Oc1c(OC)cccc12` (stereo not drawn) [CBK269013] the value was 107%; for `Cc1cc(Br)c(NC(=O)COc2ccc(/C=C(\C#N)C(N)=S)cc2)cc1C` [CBK269014], 97.5%. Regarding `Cc1ccc(OC(C)C(=O)NCc2ccccc2)cc1` (stereo not drawn) [CBK269016], the viability at 28.5 h, 10 µM was determined as 101%. Same read-out and setting: then `O=C(CCN1CCOCC1)NNC(=O)Nc1cccc(C(F)(F)F)c1` [CBK269017], with 104%; and `N#Cc1c(NC(=O)CSc2nc3ccccc3s2)oc(-c2ccccc2)c1-c1ccccc1` [CBK269019], with 97%.

As for `COC(=O)c1cccc(Cn2cc(/C=C\[N+](=O)[O-])c3ccccc32)c1` [CBK269020], the viability at 28.5 h, 10 µM came out at 93.4%. For the compound `O=C(NC(=S)Nc1cccc2c(O)cccc12)c1ccc(-c2ccccc2)cc1` [CBK269022], the viability at 28.5 h, 10 µM worked out at 85.3%. On the same count and under the same terms, then `O=C(O)CSc1nc(Nc2ccccc2)nc(N2CCOCC2)n1` [CBK269023], with 107%; and `NCCSC1CC(=O)N(Cc2ccc(F)cc2)C1=O` (stereo not drawn) [CBK269025C], with 101%; and `COc1ccc(C)cc1Nc1nc(N)nc(-c2oc3ccccc3c2C)n1` [CBK269026], with 107%. Regarding `Cc1ccc2c(C)nc(Nc3nc(CSc4nnc(C)s4)cc(=O)[nH]3)nc2c1` [CBK269027], the viability at 28.5 h, 10 µM stood at 87.1%. On to `Cc1ccc(O)c(Nc2ncnc3ccc(Br)cc23)c1` [CBK269028C], for which the viability at 28.5 h, 10 µM came to 98.3%. On to `Cc1ccc(CCC(=O)Nc2ccc(S(N)(=O)=O)cc2)o1` [CBK269031], for which the viability at 28.5 h, 10 µM stood at 99.9%. Regarding `O=C(c1ccc(N2CCN(C3CC(=O)N(Cc4cccs4)C3=O)CC2)cc1)c1cccnc1` (stereo not drawn) [CBK269040], the viability at 28.5 h, 10 µM came to 98.5%. On to `Cn1c(=O)n(C)c2cc(NC(=O)CSc3nc(Nc4ccccc4)nc(N4CCOCC4)n3)ccc21` [CBK269041], for which the viability at 28.5 h, 10 µM came to 111%. Still for that read-out and setting: then `COc1ccc(OC)c(NC(=O)CSc2nnc(-c3cccnc3)s2)c1` [CBK269043], with 78.3%; and `COc1cc(C)c(Cl)cc1S(=O)(=O)NCCCN1CCOCC1` [CBK269044], with 97.1%; and `CCCOc1ccc(S(=O)(=O)NCCN2CCOCC2)c2ccccc12` [CBK269045], with 99.1%. For `COc1ccccc1NC(=N)Nc1nc(CSc2nc3ccccc3s2)cc(=O)[nH]1` [CBK269046], the viability at 28.5 h, 10 µM is 86%. In the case of `NCCSC1CC(=O)N(Cc2cccs2)C1=O` (stereo not drawn) [CBK269047C], the viability at 28.5 h, 10 µM came out at 92.3%. Turning to `Nc1ncnc2c1ncn2CCN1CCOCC1` [CBK269049], the viability at 28.5 h, 10 µM was 104%. For `CC(Oc1ccccc1)C(=O)N1CCN(C/C=C/c2ccccc2)CC1` (stereo not drawn) [CBK269050], the viability at 28.5 h, 10 µM stood at 98%. On to `O=C(Nc1ccc(N2CCN(C(=O)c3ccco3)CC2)cc1)c1cc([N+](=O)[O-])ccc1N1CCOCC1` [CBK269052], for which the viability at 28.5 h, 10 µM worked out at 91.6%.

Regarding `Cc1cc(C)cc(NC(=O)C2CC(=O)N=C(NCc3ccccc3)N2)c1` (stereo not drawn) [CBK269054], the viability at 28.5 h, 10 µM was determined as 87.1%.

Take `O=C(c1cc2nc(-c3ccccc3)cc(-c3ccccc3)n2n1)N1CCN(C(=O)c2ccco2)CC1` [CBK269056]: the viability at 28.5 h, 10 µM was 99.4%. As to `COc1cc(/C=C(/C#N)c2ccc(C(=O)O)cc2)ccc1OCc1cccc([N+](=O)[O-])c1` [CBK269057], the viability at 28.5 h, 10 µM was 108%. With `CCCOc1ccc(S(=O)(=O)NCc2ccc3c(c2)OCO3)c2ccccc12` [CBK269059], the viability at 28.5 h, 10 µM is 94.3%. As to `Cc1ccc(-c2cc(=O)c3cc(OCC(=O)Nc4sc5c(c4C#N)CCCC5)ccc3o2)cc1` [CBK269062], the viability at 28.5 h, 10 µM was found to be 96.6%. The same measure, in the same setting: for `Cc1ccc(C)c(OCC(=O)N(Cc2nc(-c3ccccc3)no2)C2CCCCC2)c1` [CBK269067] the value was 89.4%; for `O=C(c1ccncc1)n1nc(NCc2ccccc2)nc1NCc1ccccc1` [CBK269069], 89.5%; for `COc1ccc(-n2c(S)nnc2-c2cc(C(C)(C)C)n[nH]2)cc1` [CBK269071], 97.9%. On the same count and under the same terms, then `O=C(O)c1cc2ncc(-c3n[nH]cc3[N+](=O)[O-])cn2n1` [CBK269072], with 100%; and `Cc1cccc(C(=O)Nc2ccc(C(=O)NNC(=O)C(C)(C)C)cc2)c1` [CBK269073], with 111%. The same measure, in the same setting: then `Cn1c(SCCC(=O)O)nnc1-c1cccnc1` [CBK269077], with 108%; and `COc1nc(N(C)C)nc(N2CC(=O)N(c3ccccc3)C2=N)n1` [CBK269079], with 87.6%. As to `Cc1cc(C)c(C)c(S(=O)(=O)N(CCO)CCO)c1C` [CBK269082], the viability at 28.5 h, 10 µM is 90.5%. For the compound `CCCNC(=O)c1ccc(C)c(S(=O)(=O)Nc2ccc(C)cc2C)c1` [CBK269084], the viability at 28.5 h, 10 µM came out at 88.8%. `O=C(NCc1ccccc1Cl)C1CCCN(S(=O)(=O)c2ccccc2)C1` (stereo not drawn) [CBK269086]: the viability at 28.5 h, 10 µM came out at 92.8%.

For the compound `O=C(CSc1nnc(CN2CCOCC2)n1-c1ccc(Cl)cc1)N1CCN(c2ccccc2)CC1` [CBK269088], the viability at 28.5 h, 10 µM was found to be 96.9%.

`Cc1ccccc1-c1noc(CSc2nnc(-c3ccncc3)n2-c2ccc(F)cc2)n1` [CBK269089]: the viability at 28.5 h, 10 µM came to 96.8%. Consider `CCN1CCN(C(=O)c2ccc3nc(-c4ccccc4)c(-c4ccccc4)nc3c2)CC1` [CBK269090], for which the viability at 28.5 h, 10 µM is 94.7%.

In the case of `COc1ccc(C)cc1S(=O)(=O)N(CC(=O)O)c1ccc(Cl)c(Cl)c1` [CBK269095], the viability at 28.5 h, 10 µM came out at 104%. As to `CN1CCC(N(C)C(=O)c2ccc3nccnc3c2)CC1` [CBK269096], the viability at 28.5 h, 10 µM turned out to be 108%. In the case of `N#C/C(=C/c1cc(Cl)c(OCc2ccc([N+](=O)[O-])cc2)c(Cl)c1)c1ccc(C(=O)O)cc1` [CBK269098], the viability at 28.5 h, 10 µM is 105%. With `COC(=O)c1ccccc1NC(=O)CNC(=O)c1ccccc1Cl` [CBK269113], the viability at 28.5 h, 10 µM came to 88.8%. On to `N#Cc1ccccc1COC(=O)c1cc(-c2ccc(/C=C/c3nc(O)c([N+](=O)[O-])c(=O)[nH]3)o2)ccc1Cl` [CBK269115], for which the viability at 28.5 h, 10 µM amounted to 101%. For the compound `CC(NS(=O)(=O)c1ccc(OCC(=O)N2CCc3ccccc3C2)c(Cl)c1)c1ccccc1` (stereo not drawn) [CBK269117], the viability at 28.5 h, 10 µM was 92%. On the same count and under the same terms, then `O=C(O)CCC(=O)Nc1ccc(C(=O)N2CCCc3ccccc32)cc1` [CBK269118], with 114%. The same measure, in the same setting: for `O=C(CCCc1nc(-c2ccccc2Cl)no1)Nc1cccnc1` [CBK269122] the value was 91.6%; for `CCOc1ccc(N2C(=O)CC(N3CCN(c4ccc(C(=O)c5ccncc5)cc4)CC3)C2=O)cc1` (stereo not drawn) [CBK269124], 86.5%. As for `CC(=O)Nc1ccc(S(=O)(=O)Nc2cccc(-c3cn4cccnc4n3)c2)cc1` [CBK269125], the viability at 28.5 h, 10 µM is 74.9%. Turning to `N#Cc1c(NC(=O)CN2CCc3ccccc3C2)sc2c1CCCC2` [CBK269126], the viability at 28.5 h, 10 µM is 105%. Same read-out and setting: for `Cc1ccc(C(=O)NC(=S)Nc2ccc(-c3ccc(CO)o3)cc2)cc1[N+](=O)[O-]` [CBK269127] the value was 110%; for `COc1cc(NC(=O)c2cc([N+](=O)[O-])ccc2N2CCOCC2)ccc1-c1cc2ccccc2oc1=O` [CBK269128], 84.9%. As to `O=C(O)CCC(=O)Nc1cccc(C(=O)Nc2ccc(Br)cc2)c1` [CBK269129], the viability at 28.5 h, 10 µM was determined as 94.6%. Take `CN(C)CCCNC(=O)c1cc2cc(Cl)cc(Cl)c2oc1=O` [CBK269132C]: the viability at 28.5 h, 10 µM stood at 90.2%. For the compound `O=C(Nc1cccc(Cl)c1)C1CCC(C(=O)Nc2cccc(Cl)c2)CC1` (stereo not drawn) [CBK269136], the viability at 28.5 h, 10 µM came out at 85.8%.

`NC(=O)c1c(NC(=O)Cn2ccc([N+](=O)[O-])n2)sc2c1CCCC2` [CBK269139]: the viability at 28.5 h, 10 µM was 113%.

Staying with this data set, now noted: human, hela cells, % viability, bulk resorufin, single well.
Turning to `O=C1NC(=O)C(CCc2ccccn2)(CCc2ccccn2)C(=O)N1c1cccc(C(F)(F)F)c1` [CBK269021], the viability at 28.5 h, 10 µM came to 99.8%. As to `O=C1NC(=S)N(Cc2ccccc2)C(=O)C1(CCc1ccncc1)CCc1ccncc1` [CBK269137], the viability at 28.5 h, 10 µM came out at 106%.
